Columns and labels:
[1] = tested on: CASOB (Sicklepod); experiment: Postemergence herbicidal evaluation; assay type: in vivo, Cassia obtusifolia; conditions: postemergence
In short: (§1)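 Two-week-old seedlings sprayed with compound in 50/50 acetone/water plus 0.5% TWEEN 20, at about 0.0156 to 0.500 kg/ha, nozzle at 40 psi. Kept in greenhouse; rated visually 4-5 weeks after treatment on a 0-9 scale versus control, repeat tests averaged.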

[2] = tested on: CHEAL (Lambsquarters, Common); experiment: Postemergence herbicidal evaluation; assay type: in vivo, Chenopodium album; conditions: postemergence
In short: as §1

[3] = tested on: GALAP (Galium); experiment: Postemergence herbicidal evaluation; assay type: in vivo, Galium aparine; conditions: postemergence
In short: as §1

[4] = tested on: ORYSAT (Rice, Tebonnet); experiment: Postemergence herbicidal evaluation; assay type: in vivo, Oryza sativa, (L.) Tebonnet; conditions: postemergence
In short: as §1

[5] = tested on: ZEAMX (Corn, Field); experiment: Postemergence herbicidal evaluation; assay type: in vivo, Zea mays; conditions: postemergence
In short: as §1

[6] = tested on: AMBEL (Ragweed, Common); experiment: Preemergence herbicidal evaluation; assay type: in vivo, Ambrosia artemisifolia; conditions: rated 4-5 weeks after treatment, rating scale 0-9
In short: (§2)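 Herbicidal effect scored visually, 0-9, at 4 to 5 weeks against a control; compound applied preemergence by aqueous acetone spray to seeded soil at about 0.0156 to 0.500 kg/ha.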

[7] = tested on: SETVI (Foxtail, Green); experiment: Preemergence herbicidal evaluation; assay type: in vivo, Setaria viridis; conditions: rated 4-5 weeks after treatment, rating scale 0-9
In short: as §2

[8] = tested on: GLXMAW (Soybean, Williams); experiment: Preemergence herbicidal evaluation; assay type: in vivo, Glycine max, (L.) Merr. cv Williams; conditions: rated 4-5 weeks after treatment, rating scale 0-9
In short: as §2

[9] = tested on: ORYSAT (Rice, Tebonnet); experiment: Preemergence herbicidal evaluation; assay type: in vivo, Oryza sativa, (L.) Tebonnet; conditions: rated 4-5 weeks after treatment, rating scale 0-9
In short: as §2

[10] = tested on: CYPSE (Flatsedge); experiment: Preemergence weed control under flooded paddy conditions; assay type: in vivo, Cyperus serotinus; conditions: rated 3-4 weeks after treatment
In short: (§3)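 Herbicidal effect is scored visually on a 0-9 scale against an untreated control, three to four weeks after compounds are pipetted into the flood water (1.5 to 3 cm deep) over seeds planted in silt loam at 0.5 cm depth. Rates: about 0.0313 to 0.500 kg/ha.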

[11] = tested on: MOOVA (Monochoria); experiment: as above; assay type: in vivo, Monochoria vaginalis; conditions: rated 3-4 weeks after treatment
In short: as §3

Cn1c(C(F)(F)F)cc(=O)n(-c2cc(N=C3SCC(=O)N3Cc3ccc(C(F)(F)F)cc3)c(Cl)cc2F)c1=O [Compound 141, 3-{4-Chloro-2-fluoro-5-{{3-[p-(trifluoromethyl)benzyl]-4-oxo-2-thiazolidinylidene}-amino}phenyl}-1-methyl-6-(trifluoromethyl)-2,4 (1H, 3H)-pyrimidinedione]
8.0: herbicidal effect rating, MOOVA ([11]; 0.0625 kg/ha) | herbicidal effect rating, MOOVA ([11]; 0.1250 kg/ha)
5.0: Herbicidal rating CHEAL ([2]; rate 0.0313 kg/ha) | Herbicidal rating ZEAMX ([5]; rate 0.0625 kg/ha)
0.5: Herbicidal rating ORYSAT ([4]; rate 0.0156 kg/ha)
7.0: herbicidal effect rating, MOOVA ([11]; 0.0313 kg/ha)
0.0: Herbicidal rating CASOB ([1]; rate 0.0156 kg/ha) | Herbicidal rating CASOB ([1]; rate 0.0313 kg/ha) | Herbicidal rating CASOB ([1]; rate 0.0625 kg/ha) | Herbicidal rating GALAP ([3]; rate 0.0156 kg/ha) | Preemergence herbicidal rating AMBEL ([6]; rate 0.0156 kg/ha) | Preemergence herbicidal rating AMBEL ([6]; rate 0.0313 kg/ha) | Preemergence herbicidal rating AMBEL ([6]; rate 0.0625 kg/ha) | Preemergence herbicidal rating AMBEL ([6]; rate 0.1250 kg/ha) | Preemergence herbicidal rating SETVI ([7]; rate 0.0156 kg/ha) | Preemergence herbicidal rating SETVI ([7]; rate 0.0313 kg/ha) | Preemergence herbicidal rating SETVI ([7]; rate 0.0625 kg/ha) | Preemergence herbicidal rating SETVI ([7]; rate 0.1250 kg/ha) | Preemergence herbicidal rating GLXMAW ([8]; rate 0.0156 kg/ha) | Preemergence herbicidal rating GLXMAW ([8]; rate 0.0313 kg/ha) | Preemergence herbicidal rating GLXMAW ([8]; rate 0.0625 kg/ha) | Preemergence herbicidal rating GLXMAW ([8]; rate 0.1250 kg/ha) | Preemergence herbicidal rating ORYSAT ([9]; rate 0.0156 kg/ha) | Preemergence herbicidal rating ORYSAT ([9]; rate 0.0313 kg/ha) | Preemergence herbicidal rating ORYSAT ([9]; rate 0.0625 kg/ha) | Preemergence herbicidal rating ORYSAT ([9]; rate 0.1250 kg/ha) | Preemergence herbicidal rating ORYSAT ([9]; rate 0.2500 kg/ha) | herbicidal effect rating, CYPSE ([10]; 0.0313 kg/ha) | herbicidal effect rating, CYPSE ([10]; 0.0625 kg/ha) | herbicidal effect rating, CYPSE ([10]; 0.1250 kg/ha) | herbicidal effect rating, CYPSE ([10]; 0.2500 kg/ha)
2.0: Herbicidal rating GALAP ([3]; rate 0.0313 kg/ha) | Herbicidal rating GALAP ([3]; rate 0.0625 kg/ha) | Herbicidal rating ORYSAT ([4]; rate 0.0625 kg/ha)
3.0: Herbicidal rating CHEAL ([2]; rate 0.0156 kg/ha) | Preemergence herbicidal rating GLXMAW ([8]; rate 0.2500 kg/ha)
4.5: Herbicidal rating ZEAMX ([5]; rate 0.0313 kg/ha)
4.0: Herbicidal rating ZEAMX ([5]; rate 0.0156 kg/ha) | Preemergence herbicidal rating AMBEL ([6]; rate 0.2500 kg/ha) | Preemergence herbicidal rating SETVI ([7]; rate 0.2500 kg/ha)
9.0: Herbicidal rating CHEAL ([2]; rate 0.0625 kg/ha) | herbicidal effect rating, MOOVA ([11]; 0.2500 kg/ha)
1.5: Herbicidal rating ORYSAT ([4]; rate 0.0313 kg/ha)

Cn1c(C(F)(F)F)cc(=O)n(-c2cc(N=C3SCC(=O)N3Cc3ccc(Cl)c(Cl)c3)c(Cl)cc2F)c1=O [Compound 144, 3-{4-Chloro-5-{[3-(3,4-dichlorobenzyl)-4-oxo-2-thiazolidinylidene]amino}-2-fluorophenyl}-1-methyl-6-(trifluoromethyl)-2,4(1H,3H)-pyrimidinedione]
5.0: Herbicidal rating CASOB ([1]; rate 0.0313 kg/ha)
9.0: Herbicidal rating CHEAL ([2]; rate 0.0313 kg/ha) | Herbicidal rating CHEAL ([2]; rate 0.0625 kg/ha) | Preemergence herbicidal rating SETVI ([7]; rate 0.1250 kg/ha) | Preemergence herbicidal rating SETVI ([7]; rate 0.2500 kg/ha) | herbicidal effect rating, CYPSE ([10]; 0.1250 kg/ha) | herbicidal effect rating, CYPSE ([10]; 0.2500 kg/ha) | herbicidal effect rating, MOOVA ([11]; 0.0625 kg/ha) | herbicidal effect rating, MOOVA ([11]; 0.1250 kg/ha) | herbicidal effect rating, MOOVA ([11]; 0.2500 kg/ha)
3.0: Herbicidal rating CASOB ([1]; rate 0.0156 kg/ha) | Herbicidal rating GALAP ([3]; rate 0.0156 kg/ha) | Herbicidal rating GALAP ([3]; rate 0.0313 kg/ha) | Herbicidal rating ORYSAT ([4]; rate 0.0625 kg/ha)
2.0: Preemergence herbicidal rating SETVI ([7]; rate 0.0625 kg/ha)
4.5: Herbicidal rating ZEAMX ([5]; rate 0.0625 kg/ha)
0.0: Preemergence herbicidal rating AMBEL ([6]; rate 0.0156 kg/ha) | Preemergence herbicidal rating AMBEL ([6]; rate 0.0313 kg/ha) | Preemergence herbicidal rating AMBEL ([6]; rate 0.0625 kg/ha) | Preemergence herbicidal rating SETVI ([7]; rate 0.0156 kg/ha) | Preemergence herbicidal rating SETVI ([7]; rate 0.0313 kg/ha) | Preemergence herbicidal rating GLXMAW ([8]; rate 0.0156 kg/ha) | Preemergence herbicidal rating GLXMAW ([8]; rate 0.0313 kg/ha) | Preemergence herbicidal rating GLXMAW ([8]; rate 0.0625 kg/ha) | Preemergence herbicidal rating GLXMAW ([8]; rate 0.1250 kg/ha) | Preemergence herbicidal rating GLXMAW ([8]; rate 0.2500 kg/ha) | Preemergence herbicidal rating ORYSAT ([9]; rate 0.0156 kg/ha) | Preemergence herbicidal rating ORYSAT ([9]; rate 0.0313 kg/ha) | Preemergence herbicidal rating ORYSAT ([9]; rate 0.0625 kg/ha) | Preemergence herbicidal rating ORYSAT ([9]; rate 0.1250 kg/ha) | Preemergence herbicidal rating ORYSAT ([9]; rate 0.2500 kg/ha)
7.0: Herbicidal rating CASOB ([1]; rate 0.0625 kg/ha) | Herbicidal rating CHEAL ([2]; rate 0.0156 kg/ha) | Preemergence herbicidal rating AMBEL ([6]; rate 0.2500 kg/ha) | herbicidal effect rating, CYPSE ([10]; 0.0313 kg/ha) | herbicidal effect rating, CYPSE ([10]; 0.0625 kg/ha)
6.0: herbicidal effect rating, MOOVA ([11]; 0.0313 kg/ha)
2.5: Herbicidal rating ORYSAT ([4]; rate 0.0156 kg/ha) | Herbicidal rating ORYSAT ([4]; rate 0.0313 kg/ha)
4.0: Herbicidal rating GALAP ([3]; rate 0.0625 kg/ha) | Herbicidal rating ZEAMX ([5]; rate 0.0156 kg/ha) | Herbicidal rating ZEAMX ([5]; rate 0.0313 kg/ha) | Preemergence herbicidal rating AMBEL ([6]; rate 0.1250 kg/ha)
